In patent US20090176772A1, “METHOD OF REVERSING LEFT VENTRICULAR REMODELING” (priority 2004, published 2009):

Key:
[1] = tested on: dogs with chronic heart failure produced by multiple sequential intracoronary microembolizations; assay: Echocardiographic and Doppler measurements in dogs with chronic heart failure; format: in vivo, dog; settings: mean±SEM
Excerpt: (§1) The following example examines the effects of ranolazine alone and in combination with an angiotensin converting enzyme (ACE) inhibitor and in combination with a beta-blocker on the progression of left ventricular (LV) dysfunction and LV chamber remodeling in dogs with chronic heart failure produced by multiple sequential intracoronary microembolizations.
(§2) Chronic LV dysfunction and failure in dogs was produced by multiple sequential intracoronary embolizations with polystyrene Latex microspheres (77-109 μm in diameter) as previously described by Sabbah et al. (1991) Am. J. Physiol. 260:H1379-H1384. Coronary microembolizations were performed during cardiac catheterization under general anesthesia and sterile conditions. Anesthesia was induced using a combination of intravenous injections of hydromorphone (0.22 mg/kg), diazepam (0.2-0.6 mg/kg) and sodium pentobarbital 50-100 mg to effect. Plane of anesthesia was maintained throughout the study using 1% to 2% isoflurane. Left and right heart catheterization was performed via a femoral arteriotomy and venotomy. After each catheterization, the vessels were repaired using 6-0 silk and the skin closed with 4-0 suture. Microembolizations were discontinued when LV ejection fraction, determined angiographically, was between 30% and 40%. A period of 2 weeks was allowed after the last embolization to ensure that infarctions produced by the last microembolizations have completely healed and heart failure was established. The study protocol was then performed.
(§3) Healthy, conditioned, purpose-bred mongrel dogs weighing between 19 and 25 kg.
(§4) A randomized, blinded, placebo controlled study design was used. A total of 28 dogs underwent multiple sequential intracoronary microembolizations as described above to produce chronic heart failure. Two weeks after the last embolization, dogs were randomized into 4 study groups (treatment arms). Dogs were randomized to 3 months oral therapy with ranolazine alone (375 mg, bid, n=7), ranolazine (375 mg bid) in combination with metoprolol tartrate (25 mg bid, n=7), ranolazine (375 mg bid) in combination with enalapril (10 mg bid, n=7), or placebo (ranolazine vehicle bid, n=7). Hemodynamic, angiographic, echocardiographic, Doppler and neurohumoral measurements were made prior to randomization (2 weeks after the last embolization) and after completion of therapy (3 months after initiating therapy). After completing the final hemodynamic and angiographic study, dogs were euthanized and the hearts removed and tissue prepared and saved for future histological and biochemical evaluations. The study primary and secondary end-points were as follows:
Echocardiographic and Doppler studies were performed in all dogs at all specified study time points using a 77030A ultrasound system (Hewlett-Packard) with a 3.5 MHZ transducer. All echocardiographic measurements were made with the dog placed in the right lateral decubitus position and recorded on a Panasonic 6300 VHS recorder for subsequent off-line analysis. Transverse 2-dimensional echocardiograms were obtained at the level of the LV papillary muscle and were used to calculate LV fractional area of shortening. The latter was calculated as the end-diastolic LV cavity area minus the end-systolic cavity area divided by the end-diastolic cavity area times 100. Two chamber view 2-dimensional echocardiograms were also obtained to ascertain LV major and minor semiaxes to be used for calculation of LV end-diastolic circumferential wall stress. Wall stress was calculated as follows: Stress=Pb/h(1−h/2b)(1−hb/2a2), where P is LV end-diastolic pressure, a is LV major semiaxis, b is LV minor semiaxis, and h is LV wall thickness.
Mitral inflow velocity was measured by pulsed-wave Doppler echocardiography. The velocity waveforms were used to calculate peak mitral flow velocity in early diastole (PE), peak mitral inflow velocity during LA contraction (PA), the ratio of PE to PA and early mitral inflow deceleration time. […]

[2] = tested on: dogs with chronic heart failure produced by multiple sequential intracoronary microembolizations; assay: Blood neurohumoral and electrolyte measurements in dogs with chronic heart failure; format: in vivo, dog; settings: mean±SEM; for T-PNE = transmyocardial norepinephrine: aorta minus coronary sinus
Excerpt: as §1, §2, §3, §4
Evaluation of plasma concentrations of several neurohormones were made to complement the hemodynamic assessments. Measurements were made at each of the study time periods described for hemodynamic and angiographic assessments. Transmyocardial PNE concentration was estimated by obtaining blood samples from the ascending aorta and coronary sinus during cardiac catheterization. Transmyocardial PNE was calculated as the difference between the two samples. Venous blood samples were obtained in duplicate from conscious dogs prior to cardiac catheterizations for measurement of plasma concentration of norepinephrine, plasma renin activity and plasma atrial natriuretic factor using radioimmunoassay. In addition, blood samples were obtained at the same time intervals for determination of serum electrolytes (Na+, K+, creatinine and BUN).
To ensure that all study measures were similar at baseline, comparisons were made between all 4 study groups before any embolizations and at the time of randomization before initiation of therapy. For these comparisons, a one way analysis of variance (ANOVA) was used with a set at 0.05. If significance was attained, then group wise comparisons were made using the Student-Newman-Kuels test with significance set at p≦0.05. […]

[3] = POST: after 3 months of oral therapy bid
[4] = PRE: at time of randomization, before therapy
[5] = change from pre-treatment to post-treatment (3 months)

COc1ccccc1OCC(O)CN1CCN(CC(=O)Nc2c(C)cccc2C)CC1 (racemic) [RAN Alone, (±)-N-(2,6-dimethylphenyl)-4-[2-hydroxy-3-(2-methoxyphenoxy)-propyl]-1-piperazineacetamide]
DT = deceleration time [1, 3]: 87 ± 4 ms
EDWS = LV end-diastolic circumferential wall stress [1, 3]: 42 ± 4 gm-cm^2
FAS = LV fractional area of shortening [1, 3]: 29 ± 2%
MR = severity of mitral regurgitation [1, 3]: 10.1 ± 1.3%
PE/PA (mitral inflow velocity ratio) [1, 3]: 2.8 ± 0.3
DT = deceleration time [1, 4]: 88 ± 3 ms
EDWS = LV end-diastolic circumferential wall stress [1, 4]: 56 ± 5 gm-cm^2
FAS = LV fractional area of shortening [1, 4]: 28 ± 1%
MR = severity of mitral regurgitation [1, 4]: 11.3 ± 1.9%
PE/PA (mitral inflow velocity ratio) [1, 4]: 2.7 ± 0.3
Δ DT (deceleration time) [1, 5]: -1 ± 4 ms
Δ EDWS (LV end-diastolic circumferential wall stress) [1, 5]: −14.5 ± 5.2 gm-cm^2
Δ FAS (LV fractional area of shortening) [1, 5]: 1 ± 1 %
Δ MR (severity of mitral regurgitation) [1, 5]: −1.2 ± 1.1%
Δ PE/PA [1, 5]: 0.0 ± 0.4
T-PNE = transmyocardial norepinephrine [2, 3]: −2.9 ± 6.1
ANF = atrial natriuretic factor [2, 3]: 67 ± 11 pg/mL
BUN = blood urea nitrogen [2, 3]: 15 ± 2 mg/dL
Creat = serum creatinine [2, 3]: 1.0 ± 0.1 mg/dL
K+ (serum electrolyte) [2, 3]: 4.7 ± 0.1
Na+ (serum electrolyte) [2, 3]: 147 ± 0.8
PNE = plasma norepinephrine [2, 3]: 199 ± 43 pg/mL
PRA = plasma rennin activity [2, 3]: 1.57 ± .55 ng/mL/h
T-PNE = transmyocardial norepinephrine [2, 4]: 8.6 ± 7.0
ANF = atrial natriuretic factor [2, 4]: 87 ± 15 pg/mL
BUN = blood urea nitrogen [2, 4]: 18 ± 2 mg/dL
Creat = serum creatinine [2, 4]: 0.9 ± 0.0 mg/dL
K+ (serum electrolyte) [2, 4]: 4.5 ± 0.1
Na+ (serum electrolyte) [2, 4]: 147 ± 0.5
PNE = plasma norepinephrine [2, 4]: 217 ± 25 pg/mL
PRA = plasma rennin activity [2, 4]: 1.69 ± .71 ng/mL/h
Δ ANF (atrial natriuretic factor) [2, 5]: 20 ± 14 pg/mL
Δ BUN (blood urea nitrogen) [2, 5]: -2.1 ± 1.4 mg/dL
Δ Creat (serum creatinine) [2, 5]: 0.0 ± 0.1 mg/dL
Δ K+ [2, 5]: 0.1 ± 0.1
Δ Na+ [2, 5]: −0.3 ± 1.0
Δ PNE (plasma norepinephrine) [2, 5]: -19 ± 42 pg/mL
Δ PRA (plasma rennin activity) [2, 5]: 0.13 ± 0.92 ng/mL/h
Δ T-PNE (transmyocardial norepinephrine) [2, 5]: −11 ± 9
